Earlier results, collected in paper PMC3845828 (Clinical cancer research : an official journal of the …, 2012).

What was measured:
HMGB-1 binding to RAGE = details: in vitro; ref [8]
cancer cells = details: pretreatment of cancer cells in vitro, experimental in vivo model; ref [8]
RAGE / S100P = details: ref [15]

HMGB-1-derived peptide: peptide consisting of residues 150–183 of HMGB-1 (end of the B-box and its linker to the acidic tail) (KLKEKYEKDIAAYRAKGKPDAAKKGVVKAEKSKK; UniProt P09429 150-183, looked up, fragment)
competition with HMGB-1 binding to RAGE (HMGB-1 binding to RAGE): successfully compete with HMGB-1 binding to RAGE
migration and metastasis of cancer cells pretreated with peptide (cancer cells): successfully blocked their subsequent migration and their metastasis
binding and activation of RAGE by S100P (RAGE / S100P): blocked the binding and activation of RAGE by S100P
